# Data published in US8304419B2, “Chemical compounds” (priority 2007, dated 2012).
# pIC50: −log10 of the molar value. Counter-ions that a name gives are not always drawn.
# Tested on: HIV wild type (WTRVA)
# Test: HeLa cell assay, wild type virus (WTRVA)
# Assay type: cell-based, HIV-1
# Conditions: Human immunodeficiency virus 1, HeLa, HeLa cell assay; read-out: IC50 against WTRVA
row,SMILES,pIC50
1,"Cc1cc(C#N)cc(Oc2c(Cl)ccc(CNC(=O)c3[nH]cnc3Cl)c2F)c1 [Example 145, 4-chloro-N-({4-chloro-3-[(3-cyano-5-methylphenyl)oxy]-2-fluorophenyl}methyl)-1H-imidazole-5-carboxamide]",> 8.00
2,"Cc1cc(C#N)cc(Oc2c(Cl)ccc(CNC(=O)c3[nH]c(C)nc3Br)c2F)c1 [Example 146, 4-bromo-N-({4-chloro-3-[(3-cyano-5-methylphenyl)oxy]-2-fluorophenyl}methyl)-2-methyl-1H-imidazole-5-carboxamide]",> 8.00
3,"CCc1cc(C#N)cc(Oc2c(Cl)ccc(CNC(=O)c3[nH]cnc3Cl)c2F)c1 [Example 148, 4-chloro-N-({4-chloro-3-[(3-cyano-5-ethylphenyl)oxy]-2-fluorophenyl}methyl)-1H-imidazole-5-carboxamide]",> 8.00
4,"CCc1cc(C#N)cc(Oc2c(Cl)ccc(CNC(=O)c3[nH]c(C)nc3Br)c2F)c1 [Example 149, 4-bromo-N-({4-chloro-3-[(3-cyano-5-ethylphenyl)oxy]-2-fluorophenyl}methyl)-2-methyl-1H-imidazole-5-carboxamide]",> 8.00
5,"N#Cc1cc(Br)cc(Oc2c(Cl)ccc(CNC(=O)c3[nH]cnc3Cl)c2F)c1 [Example 150, N-({3-[(3-bromo-5-cyanophenyl)oxy]-4-chloro-2-fluorophenyl}methyl)-4-chloro-1H-imidazole-5-carboxamide]",> 8.00
6,"CCCc1cc(C#N)cc(Oc2c(Cl)ccc(CNC(=O)c3[nH]cnc3Cl)c2F)c1 [Example 151, 4-chloro-N-({4-chloro-3-[(3-cyano-5-propylphenyl)oxy]-2-fluorophenyl}methyl)-1H-imidazole-5-carboxamide]",> 8.00
7,"N#Cc1cc(Oc2c(Cl)ccc(CNC(=O)c3[nH]cnc3Cl)c2F)cc(C2CC2)c1 [Example 152, 4-chloro-N-({4-chloro-3-[(3-cyano-5-cyclopropylphenyl)oxy]-2-fluorophenyl}methyl)-1H-imidazole-5-carboxamide]",> 8.00
8,"C=CCc1cc(C#N)cc(Oc2c(Cl)ccc(CNC(=O)c3[nH]cnc3Cl)c2F)c1 [Example 156, 4-chloro-N-[(4-chloro-3-{[3-cyano-5-(2-propen-1-yl)phenyl]oxy}-2-fluorophenyl)methyl]-1′-1H-imidazole-5-carboxamide]",> 8.00
9,"N#Cc1cc(CC2CC2)cc(Oc2c(Cl)ccc(CNC(=O)c3[nH]cnc3Cl)c2F)c1 [Example 157, 4-chloro-N-[(4-chloro-3-{[3-cyano-5-(cyclopropylmethyl)phenyl]oxy}-2-fluorophenyl)methyl]-1H-imidazole-5-carboxamide]",> 8.00
10,"C=C(C)c1cc(C#N)cc(Oc2c(Cl)ccc(CNC(=O)c3[nH]cnc3Cl)c2F)c1 [Example 158, 4-chloro-N-[(4-chloro-3-{[3-cyano-5-(1-methylethenyl)phenyl]oxy}-2-fluorophenyl)methyl]-1H-imidazole-5-carboxamide]",> 8.00
11,"CC(C)c1cc(C#N)cc(Oc2c(Cl)ccc(CNC(=O)c3[nH]cnc3Cl)c2F)c1 [Example 159, 4-chloro-N-[(4-chloro-3-{[3-cyano-5-(1-methylethyl)phenyl]oxy}-2-fluorophenyl)methyl]-1H-imidazole-5-carboxamide]",> 8.00
12,"N#Cc1cc(Cl)cc(Oc2c(Cl)ccc(CNC(=O)c3[nH]ccc3Br)c2F)c1 [Example 204, 3-bromo-N-({4-chloro-3-[(3-chloro-5-cyanophenyl)oxy]-2-fluorophenyl}methyl)-1H-pyrrole-2-carboxamide]",> 8.00
13,"N#Cc1cc(Cl)cc(Oc2c(Cl)ccc(CNC(=O)c3[nH]c(N)nc3Cl)c2F)c1 [Example 230, 2-amino-4-chloro-N-({4-chloro-3-[(3-chloro-5-cyanophenyl)oxy]-2-fluorophenyl}methyl)-1H-imidazole-5-carboxamide trifluoroacetate]",> 8.00
14,"Cc1nc(Cl)c(C(=O)NCc2ccc(Br)c(Oc3cc(Cl)cc(C#N)c3)c2F)[nH]1 [Example 231, N-({4-bromo-3-[(3-chloro-5-cyanophenyl)oxy]-2-fluorophenyl}methyl)-4-chloro-2-methyl-1H-imidazole-5-carboxamide trifluoroacetate]",> 8.00
15,"Cc1nc(Br)c(C(=O)NCc2ccc(Br)c(Oc3cc(Cl)cc(C#N)c3)c2F)[nH]1 [Example 233, 4-bromo-N-({4-bromo-3-[(3-chloro-5-cyanophenyl)oxy]-2-fluorophenyl}methyl)-2-methyl-1H-imidazole-5-carboxamide]",> 8.00
16,"Cc1nc(Br)c(C(=O)NCc2cc(Br)c(Br)c(Oc3cc(Cl)cc(C#N)c3)c2F)[nH]1 [Example 234, 4-bromo-N-({4,5-dibromo-3-[(3-chloro-5-cyanophenyl)oxy]-2-fluorophenyl}methyl)-2-methyl-1H-imidazole-5-carboxamide trifluoroacetate]",> 8.00
17,"N#Cc1cc(Cl)cc(Oc2c(Cl)ccc(CNC(=O)c3[nH]c(N)nc3Br)c2F)c1 [Example 235, 2-amino-4-bromo-N-({4-chloro-3-[(3-chloro-5-cyanophenyl)oxy]-2-fluorophenyl}methyl)-1H-imidazole-5-carboxamide trifluoroacetate]",> 8.00

row,SMILES,pIC50
1,"N#Cc1cc(Cl)cc(Oc2c(Br)ccc(CNC(=O)c3[nH]c(N)nc3Br)c2F)c1 [Example 237, 2-amino-4-bromo-N-({4-bromo-3-[(3-chloro-5-cyanophenyl)oxy]-2-fluorophenyl}methyl)-1H-imidazole-5-carboxamide trifluoroacetate]",> 8.00
2,"N#Cc1cc(Cl)cc(Oc2c(Br)ccc(CNC(=O)c3nc(N)[nH]c3Cl)c2F)c1 [Example 239, 2-amino-N-({4-bromo-3-[(3-chloro-5-cyanophenyl)oxy]-2-fluorophenyl}methyl)-4-chloro-1H-imidazole-5-carboxamide]",> 8.00
3,"Cc1cc(C#N)cc(Oc2c(Br)ccc(CNC(=O)c3[nH]c(N)nc3Cl)c2F)c1 [Example 240, 2-amino-N-({4-bromo-3-[(3-cyano-5-methylphenyl)oxy]-2-fluorophenyl}methyl)-4-chloro-1H-imidazole-5-carboxamide trifluoroacetate]",> 8.00
4,"N#Cc1cc(Cl)cc(Oc2c(Br)ccc(CNC(=O)c3[nH]c(CO)nc3Cl)c2F)c1 [Example 241, N-({4-bromo-3-[(3-chloro-5-cyanophenyl)oxy]-2-fluorophenyl}methyl)-4-chloro-2-(hydroxymethyl)-1H-imidazole-5-carboxamide]",> 8.00
5,"C=CCc1cc(C#N)cc(Oc2c(Cl)ccc(CNC(=O)c3[nH]c(C)nc3Cl)c2F)c1 [Example 248, 4-chloro-N-[(4-chloro-3-{[3-cyano-5-(2-propen-1-yl)phenyl]oxy}-2-fluorophenyl)methyl]-2-methyl-1H-imidazole-5-carboxamide trifluoroacetate]",> 8.00
6,"CCc1ccc(CNC(=O)c2[nH]c(C)nc2Cl)c(F)c1Oc1cc(Cl)cc(C#N)c1 [Example 249, 4-chloro-N-({3-[(3-chloro-5-cyanophenyl)oxy]-4-ethyl-2-fluorophenyl}methyl)-2-methyl-1H-imidazole-5-carboxamide]",> 8.00
7,"CCc1ccc(CNC(=O)c2[nH]cnc2Cl)c(F)c1Oc1cc(Cl)cc(C#N)c1 [Example 250, 4-chloro-N-({3-[(3-chloro-5-cyanophenyl)oxy]-4-ethyl-2-fluorophenyl}methyl)-1H-imidazole-5-carboxamide]",> 8.00
8,"CCc1ccc(CNC(=O)c2[nH]c(N)nc2Cl)c(F)c1Oc1cc(Cl)cc(C#N)c1 [Example 251, 2-amino-4-chloro-N-({3-[(3-chloro-5-cyanophenyl)oxy]-4-ethyl-2-fluorophenyl}methyl)-1H-imidazole-5-carboxamide]",> 8.00
9,"N#Cc1cc(Cl)cc(Oc2c(C(F)F)ccc(CNC(=O)c3[nH]cnc3Cl)c2F)c1 [Example 252, 4-chloro-N-{[3-[(3-chloro-5-cyanophenyl)oxy]-4-(difluoromethyl)-2-fluorophenyl]methyl}-1H-imidazole-5-carboxamide]",> 8.00
10,"N#Cc1cc(Cl)cc(Oc2c(C(F)F)ccc(CNC(=O)c3[nH]c(N)nc3Cl)c2F)c1 [Example 253, 2-amino-4-chloro-N-{[3-[(3-chloro-5-cyanophenyl)oxy]-4-(difluoromethyl)-2-fluorophenyl]methyl}-1H-imidazole-5-carboxamide]",> 8.00
11,"Cc1nc(Cl)c(C(=O)NCc2ccc(C(F)F)c(Oc3cc(Cl)cc(C#N)c3)c2F)[nH]1 [Example 254, 4-chloro-N-{[3-[(3-chloro-5-cyanophenyl)oxy]-4-(difluoromethyl)-2-fluorophenyl]methyl}-2-methyl-1H-imidazole-5-carboxamide]",> 8.00
12,"C=Cc1ccc(CNC(=O)c2[nH]c(C)nc2Cl)c(F)c1Oc1cc(Cl)cc(C#N)c1 [Example 269, 4-Chloro-N-({3-[(3-chloro-5-cyanophenyl)oxy]-4-ethenyl-2-fluorophenyl}methyl)-2-methyl-1H-imidazole-5-carboxamide]",> 8.00
13,"Cc1nc(Cl)c(C(=O)NCc2ccc(C3CC3)c(Oc3cc(Cl)cc(C#N)c3)c2F)[nH]1 [Example 270, 4-Chloro-N-({3-[(3-chloro-5-cyanophenyl)oxy]-4-cyclopropyl-2-fluorophenyl}methyl)-2-methyl-1H-imidazole-5-carboxamide]",> 8.00
14,"Cc1cc(C#N)cc(Oc2c(Cl)ccc(CNC(=O)c3[nH]c(C)nc3Cl)c2F)n1 [Example 271, 4-Chloro-N-({4-chloro-3-[(4-cyano-6-methyl-2-pyridinyl)oxy]-2-fluorophenyl}methyl)-2-methyl-1H-imidazole-5-carboxamide]",> 8.00
15,"C=Cc1cc(C#N)cc(Oc2c(Cl)ccc(CNC(=O)c3[nH]c(C)nc3Cl)c2F)n1 [Example 272, 4-Chloro-N-({4-chloro-3-[(4-cyano-6-ethenyl-2-pyridinyl)oxy]-2-fluorophenyl}methyl)-2-methyl-1H-imidazole-5-carboxamide]",> 8.00
16,"Cc1nc(Cl)c(C(=O)NCc2ccc(Cl)c(Oc3cc(C#N)cc(C4CC4)n3)c2F)[nH]1 [Example 273, 4-Chloro-N-({4-chloro-3-[(4-cyano-6-cyclopropyl-2-pyridinyl)oxy]-2-fluorophenyl}methyl)-2-methyl-1H-imidazole-5-carboxamide]",> 8.00
